According to PMC8750417, “Intracellular Amplifiers of Reactive Oxygen Species Affecting Mitochondria as Radiosensitizers” (Cancers, 2021):
Like-named read-outs stand apart in the source and are kept apart here.

Experiments:
[1] = n-octanol/water partition coefficient (logP) by RP-TLC; type: physicochemical
Procedure: Determination of n-octanol/water partition coefficients (LogP) […]
mixture of dichloromethane/CH3OH at proper concentrations. Commercially available […]
7.4) (6/4, v/v) was used. The solvent migration distance was around 4.5 cm. The plates […]
and its distance was manually measured. All measurements were done in at least triplicate and average values were used in further calculations. All experiments were performed at ambient temperature (22 ± 2 °C). […]

A2780 cells [2] = test: Organelle-specific staining in A2780 cells (R123 MMP, AO lysosomes, ER, Golgi); type: cell-based, human; conditions: for effect on lysosomes (LY), endoplasmic reticulum (ER) and Golgi (GO) staining: A2780, 30 µM, 1-4 h; for MMP compared to the MMP of untreated cells: R123
Procedure: Effect of prodrugs and controls on cellular organelles in A2780 cells: lysosomes (LY), endoplasmic reticulum (ER), Golgi (G) and mitochondria (Mit) (Figures 3, S56) A2780 cells were seeded in RPMI 1640 medium containing 5% FBS, 1% L-glutamine and 1% penicillin/streptomycin in a 24-well microtiter plate (total volume 0.5 mL) at a density of 200 cells/µL one day before the experiment. On the day of the experiment, prodrugs (“LY/ER/G”-experiments: stock solution - 3 mM, 5 µL, final concentration: 30 µM; “Mit”- experiment: stock solutions - 0.5, 1 and 3 mM, 5 µL, final concentrations: 5, 10, 30 µM) or carrier only (DMSO, 1%, v/v) were added to cells and incubated for 1, 4 and 24 h in a dark chamber filled with CO2 (5 %) at 37 °C. The cells were washed twice with DPBS buffer and the medium was replaced with HBSS (Hanks' Balanced Salt solution, 500 μL).
Stock solutions of different dyes (5 µL) were added: concentrations of the stock solutions were 4 mg/L for Acridine orange (AO), 10 mg/L for Rhodamine 123 (R123), 1 µM for ER-Tracker-Green (ERG) and 10 µM for Golgi-Staining-Green (GO). […]
Final concentrations of solutions were 40 µ g/L for AO, 100 µ g/L for R123, 0.01 µ M for ERG and 0.1 µ M for GO. The cells were incubated in the dark chamber filled with CO 2 (5%) at 37 ° C for 20 min. Afterwards the supernatant was removed, the cells were washed with DPBS buffer twice and detached from the culture dish using t rypsin/EDTA (0.025%/0.01%, v/v, 200 µ L). Next, the cells were re -suspended in fresh medium. Finally, the fluorescence of live cells (the number of total events was 5000, λex = 488 nm, λ em = 530 nm) in the suspensions was determined by using flow cytometry (N=3, Figure 3, S56).
Figure S56. Effects of the prodrugs on mitochondria membrane potential (MMP) of A2780 cell lines after 1 -48 h incubation. *: p< 0.05; **: p< 0.01; ***: p< 0.001 , Student’s t test. […]
reference (labelled on the plot). […]

A2780 cells [3] = test: Accumulation of prodrugs in A2780 cells (atomic emission spectrometry of B, Fe); type: cell-based, human; conditions: 5 µM, 4 h, Zn as internal standard, carrier = 1
Procedure: colored arrow. After the initial lagging period, the oxidation reactions reach their maximum […]
Accumulation of prodrugs in A2780 cells
A2780 cells (around 150 cells/µL, 40 mL) were seeded in T175 flasks (Greiner, Germany) in RPMI 1640 medium supplemented with 5% FBS, 1% L-glutamine, and 1% penicillin/streptomycin and incubated for 3-4 days at 37°C in the chamber filled with 5%
CO2. Next, a fresh portion of RPMI 1640 medium supplemented with 5% FBS, 1% L - glutamine, and 1% penicillin/streptomycin was added to replace old medium. Prodrugs ([…], 400 µL in DMSO, final concentration: 5 µM) or carrier (DMSO, 400 µL, final concentration: 1%. v/v) were added into the bottles and the cells were further incubated at 37°C for 4 h. The cells were washed with DPBS (2 x 10 mL) and trypsinated (trypsin/EDTA, 0.025%/0.01%, v/v, 2 mL). After the cells were harvested and centrifuged (5 min, 1000 rpm) in 50 mL falcon tube, the cell pellet was re-suspended in DPBS (1 mL), the suspension - transferred to 1.5 mL EP tube and centrifuged one more time (2 min, 2000 rpm). The obtained cell pellet was shaken with concentrated HNO3 (65%, 100 µL) in an Eppendorf Thermomixer for 10 min at 95° C, 600 rpm. […] The insoluble components were separated by centrifugation (30 min, 13000 rpm) and the supernatant was analyzed by atomic emission spectrometry (AES) for the detection of B, Zn and Fe. […]

AsPC1 cells = test: Cell viability by flow cytometry, AsPC1; type: cell-based, human; conditions: AsPC1, 72 h incubation
Procedure: Table S3. Effects of the prodrugs on the viability of BL2 cell line (IC50 values) after 48 and […]
AsPC1 cells The cells (20.000/well) were seeded in a 12-well plate and incubated for 24 h. Afterwards, the medium was changed and the cells were further incubated for 72 h with medium containing different concentrations of compounds 2c and 5b. Viable cells were determined based on the morphological parameters by using flow cytometry (Table S4).
Table S4. Effects of the prodrugs on the viability of AsPC1 cell lines (IC50 values) after 72 […]
Jurkat cells The cells were counted in MUSE Cell Analyzer using MUSE® Count &Viability Assay Kit (Merck-Millipore, Billerica, MA, USA) and adjusted to a density of 1.0 x 10^5/ml in RPMI 1640 medium (with 10% FCS and 1% glutamine). 9.000 cells per well per 90 µL were seeded into 96 well culture plates. The 30 mM prodrug stock solutions in DMSO were diluted to 300 µM, 100 µM, 30 µM and 10 µM in cell culture medium and 10 µL of the dilutions was pipetted to the cells, receiving final test concentrations of 30 µM, 10 µM, 3 µM and 1 µM. Every concentration was tested in triplicates. Cells with corresponding amounts of DMSO served as negative controls. After 48 h cells were mixed and 25 µL of […]

CC1(C)OB(c2ccc(COC(=O)N(Cc3cn(Cc4ccc(Cn5cc(Cc6ccccc6)nn5)cc4)nn3)[c-]3cccc3)cc2)OC1(C)C.[Fe+2].c1cc[cH-]c1 [2c]
logP (Hydrolyzed Prodrug) ([1]; n-octanol/water partition coefficient of the hydrolyzed boronic acid (_BA) form of the prodrug named): 3.23 ± 0.11
logP (Prodrug) ([1]; n-octanol/water partition coefficient of the intact prodrug (or control 2c_c), RP-TLC, MOPS pH 7.4): 5.37 ± 0.15
effect on lysosomes (LY), endoplasmic reticulum (ER) and Golgi (GO) staining (A2780 cells [2]): affected neither LY nor ER nor GO
MMP compared to the MMP of untreated cells (A2780 cells [2]; A2780, 1 h incubation): 69 ± 11%
MMP compared to the MMP of untreated cells (A2780 cells [2]; A2780, 24 h incubation): 30 ± 5%
Relative iron amount (A2780 cells [3]): 5.0 ± 0.1
IC50 (AsPC1 cells): 7.1 ± 1 µM

CC1(C)OB(c2ccc(COC(=O)N(Cc3cccc(CN4CCCCC4)c3)[c-]3cccc3)cc2)OC1(C)C.[Fe+2].c1cc[cH-]c1 [5b]
effect on lysosomes (LY), endoplasmic reticulum (ER) and Golgi (GO) staining (A2780 cells [2]): strongly affected lysosomes
IC50 (AsPC1 cells): 6.7 ± 0.5 µM

CCOC(=O)CCCCCn1cc(CN(C(=O)OCc2ccc(B3OC(C)(C)C(C)(C)O3)cc2)[c-]2cccc2)nn1.[Fe+2].c1cc[cH-]c1 [compound 1]
logP (Hydrolyzed Prodrug) [1]: 2.83 ± 0.07
logP (Prodrug) ([1]; pH 7.4): 4.87 ± 0.05
Relative iron amount (A2780 cells [3]): 1.4 ± 0.1
